# Measured values: patent publication US20250082649A1, “ALTERATION OF NUTRIENT PREFERENCES VIA MODULATION OF NUTRIENT RECEPTORS IN THE GUT” (The Trustees of Columbia University in the City of New York, priority 2022, published 2025)
# Entries after “also recorded” stand apart in the source; their conditions may differ.
# Legend:
# [1] = test system: mice; assay: Brief-access (30 min) two-bottle tests, immediate attraction; format: in vivo; settings: 30 min two-bottle test, 3 mM AceK or 1.5% Intralipid, n=9 mice
# Procedure: Two-bottle preference assays. No behavioral experiments, including the short-term assays for taste responses, or the 48 h tests examining the development of sugar or fat preference used water-restricted or food-deprived mice. Mice were given ad libitum access to food and water for several days prior to the behavioral tests; any food or water restriction would severely affect the mice's behavior in preference or taste responses. Development of fat preference: mice were first tested for their initial preference between 1.5% Intralipid and 3 mM AceK (pre testing) by completing 100 drinking trials. Each trial was initiated by the first lick and lasted for 5 s; the drinking ports then re-opened after 30 s of inter-trial interval. Next, mice were exposed to 500 licks to both 1.5% Intralipid and 3 mM AceK; this was repeated twice. […] The pre and post-preference indexes were calculated by dividing the number of licks to fat by the total lick count during the first 2-4 h (100 trials) of baseline measurements (pre) and during the last 2-4 h (100 trials) of the behavioural session (post), respectively. […] The ‘pre’ preference index was calculated as the number of licks to fat divided by the total lick count during the first 4 h; the “post” preference index was calculated as the number of licks to fat divided by the total lick count during the last 4 h of the session. […]
# [2] = test system: vagal sensory neurons; assay: Vagal calcium imaging (nodose ganglion, GCaMP6s) with intestinal delivery of stimuli; format: in vivo, mice; settings: for responding vagal neurons of imaged neurons: intestinal delivery, 10% fatty acid or pre-digested Intralipid, FIG. 10E-10I stimuli interleaved with 10% LA (10 s)
# Procedure: To directly examine and monitor the fat responses of vagal sensory neurons, functional imaging of the nodose ganglion (which contains the cell bodies of vagal neurons) was performed. The genetically encoded activity sensor GCaMP6s was targeted to vagal sensory neurons using Vglut2-Cre animals, and a one-photon calcium imaging set-up was used coupled to synchronous intestinal delivery of fat, sugar and other stimuli to record neuronal responses in vivo, with real time kinetics (FIG. 2E, FIG. 10A, FIG. 10B, FIG. 10C). To administer the stimuli, a catheter was placed into the duodenal bulb, and an exit port was created by transecting the intestine 10 cm distally. During each imaging session, the intestine was exposed to a pre-stimulus application of PBS, a 10 s or 60 s exposure to the test stimulus, and a 200 s post-stimulus wash; this regime was repeated at least 3 times for each stimulus.
# Fat, sugar and amino acid intestinal stimulation. Stimuli for nodose imaging experiments were as follows. Sugar: 500 mM glucose. Amino acids: a mix consisting of 50 mM methionine, 50 mM serine, 50 mM alanine, 50 mM glutamine and 50 mM cysteine dissolved in PBS. Fat: 10% linoleic acid, 10% linolenic acid, 10% hexanoic acid, 10% DHA, 10% oleic acid, diluted in PBS containing 0.1% xanthan gum and 0.05% Tween 80, and vortexed for a minimum of 10 min. Vehicle control: 0.1% xanthan gum and 0.05% Tween 80. For sugar and fat intestinal stimulation in imaging experiments, a 10 s window of stimulation was used; for amino acids, a 60 s stimulus was used, as lower concentrations of each in the mix of several amino acids was used (see above). Note that if using Intralipid mix (a 20% soy bean oil emulsion, Santa Cruz) for nodose imaging experiments (rather than consumption where it would be naturally digested and broken down into short, medium and long chain fatty acids), the material was pre-digested with lipases (mimicking its natural course of action upon ingestion). […] Intralipid was incubated with 4 mg/ml lipase (sigma) in PBS plus 10 mM CaCl2 for a minimum of 5 h at 37° C.
# Vagal calcium imaging. Each mouse was anaesthetized with ketamine (100 mg/kg) and xylazine (10 mg/kg). […] For glutamate receptor blocker experiments, a mixture of metabotropic glutamate receptor antagonist AP3 (2 mg/kg) and ionotropic glutamate receptor antagonist kynurenic acid (300 μg/kg) was used. CCKAR and glutamate receptor blockers were delivered both into the intestines and abdominal cavity; after a 5 min incubation period, the imaging session was started.
# Calcium imaging data collection and analysis. […] Data was acquired at 5 Hz. A single field of view was chosen for recording and analysis from each ganglion. Calcium imaging data collected at 5 Hz was down-sampled by a factor of 2, and the images were stabilized using the NORMCorre algorithm. Motion-corrected movies were then manually segmented in ImageJ using the Cell Magic Wand plugin. Neuropil fluorescence was subtracted from each region of interest with the FISSA toolbox, and neural activity was denoised using the OASIS deconvolution algorithm. […] For experiments using blockers, two repeat trials per stimuli were used to accommodate the expanded time scale of the session (that is, before and after), and a neuron was considered a responder if it responded in both trials. The two-trial average area under curve for each stimulus was used to quantify the before and after responses (FIG. 12D, FIG. 12E). Imaging data is presented as heat maps of z-score-normalized responses.
# [3] = test system: cNST neurons; assay: Fibre photometry of cNST activity in response to intestinal delivery of stimuli; format: in vivo, mice; settings: Penk-Cre animals
# Procedure: Fibre photometry. Vglut2-cre; Ai96 mice were placed in a stereotaxic frame and implanted with a 400 μm core, 0.48 NA optical fibre (Doric Lenses) 50-100 μm over the left cNST. […] To quantify the effects of vagotomy, the ratio of stimulus-related peak amplitude of the normalized trace was calculated (within 120 s of stimulus onset) prior vagotomy versus after vagotomy. […] Stimulus delivery was performed via a series of peristaltic pumps (BioChem Fluidics) operated via custom Matlab software and Arduino microcontroller. Stimuli and washes were delivered through separate lines that converged on a common perfusion manifold (Warner Instruments) connected to the duodenal catheter. Trials consisted of a 60-s baseline (PBS 200 μl/min), a 30 s stimulus (200 μl/min), and a 3-min washout period (150 s at 600 μl/min, and 30 s at 150 μl/min). Stimuli were each presented three times in an interleaved fashion.
# [4] = test system: cNST; assay: Fos stimulation and histology, cNST; format: in vivo, mice; settings: 90 min exposure; 20% Intralipid, 10% linoleic acid or 10% oleic acid vs xanthan gum / mineral oil controls
# Excerpt: Separate cohorts of animals were exposed to 3 different lipid stimuli (Intralipid, linoleic acid, or oleic acid) and to fat-free textural controls (xanthan gum or mineral oil). […] The cNST is a nexus of interoceptive signals conveying information from the body to the brain via the gut-brain axis. If the fat-activated brain cNST neurons are receiving signals originating in the gut, then direct delivery of fat stimuli into the gut should also induce activation of the cNST. An intragastric catheter was implanted in the stomach and infused either a fat solution or a vehicle control. Intragastric infusion of fat, but not of a vehicle, is sufficient to activate the cNST as robustly as oral ingestion (FIG. 1E, FIG. 1F, FIG. 8J, FIG. 8K, FIG. 8L).
# Fos stimulation and histology. Stimuli consisted of 20% Intralipid (sc215182, Santa Cruz Biotechnology), 10% linoleic acid, 10% oleic acid, 0.3% xanthan gum or 10% mineral oil. Stimuli were emulsified by dilution into milliQ water containing 0.1% xanthan gum and 0.05% Tween 80, and vortexed for a minimum of 10 min. […] Quantification of Fos labelling was carried out by recording the number of positive neurons in an equivalent 200×200 um area of the cNST (bregma—7.5 mm) and area postrema. […]
# [5] = test system: vagal neurons; assay: CCK application in vagal calcium imaging; format: in vivo, mice; settings: 1 μg/ml CCK, 60 s
# Excerpt: Calcium imaging data collection and analysis. […] Data was acquired at 5 Hz.
compound,measurement,setting,value
"CC1=CC(=O)[N-]S(=O)(=O)O1.[K+] [AceK, acesulfame K]",immediate attraction versus water,[1],strong innate attraction
CCCCCC(=O)O [hexanoic acid],responding vagal neurons of imaged neurons,[2],52/495
"CN1C(=O)[C@@H](NC(=O)c2cc3ccccc3[nH]2)N=C(c2ccccc2)c2ccccc21 [devazepide, Devazepide]",cNST responses to intestinal fat stimulation after removing CCK-dependent signaling,"[3]; photometric recordings, n=5",~50%
same,cNST sugar-evoked responses after inhibiting signaling via the CCK dependent pathway,"[3]; photometric recordings, n=5",completely abolished
CC/C=C\C/C=C\C/C=C\CCCCCCCC(=O)O [alpha-linolenic acid],responding vagal neurons of imaged neurons,[2],49/322
CC/C=C\C/C=C\C/C=C\C/C=C\C/C=C\C/C=C\CCC(=O)O [docosahexaenoic acid],responding vagal neurons of imaged neurons,[2],51/348
CCCCC/C=C\C/C=C\CCCCCCCC(=O)O [linoleic acid],neurons that responded only to fat (fat-only responders),"[2]; 10% linoleic acid and 500 mM glucose, 10 s, 1813 neurons imaged, 22 vagal ganglia",153
same,TRPA1-expressing vagal neurons responding to fat,"[2]; Trpa1-Cre, Ai162, 163 imaged neurons from 5 ganglia, 10% linoleic acid",~24%
same,"subset of vagal neurons with evoked responses, % of GCaMP-expressing Vglut2 neurons","[2]; intestinal infusion, Vglut2-Cre animals",17%
same,vagal neuron responses to intestinal delivery,[2]; vs vehicle control (0.1% xanthan gum plus 0.05% Tween 80),strong responses; also recorded: robust responses
same,cNST neural responses to intestinal delivery,"[3]; 10% linoleic acid or 500 mM glucose, n=4 mice","robust, time-locked responses"
same,Fos labelling in cNST upon ingestion,[4],strong Fos labelling; also recorded: strong bilateral activation
CCCCCCCC/C=C\CCCCCCCC(=O)O [oleic acid],responding vagal neurons of imaged neurons,[2],39/418
same,Fos labelling in cNST upon ingestion,[4],strong Fos labelling; also recorded: strong bilateral activation
Cholecystokinin [CCK],activation of fat-only vagal neurons,[5],not the fat-only vagal neurons
same,activation of sugar/nutrient responding vagal neurons,[5],all sugar/nutrient responders were activated; also recorded: also responded to CCK
same,activation of sugar/nutrient responding vagal neurons,[5]; listed as CCK peptide,strongly activated
